We go through ten compounds from article PMC6099553, “Novel Structural Insight into Inhibitors of Heme Oxygenase-1 (HO-1) by New Imidazole-Based Compounds: Biochemical and In Vitro Anticancer Activity Evaluation” (Molecules : A Journal of Synthetic Chemistry and Natural …, 2018).

The target of series [1] is T1, HO-2 (Rattus norvegicus, UniProt P23711).
T1 construct: selected in order to use the most native (i.e., closest to in vivo) forms of HO-1 and HO-2; from tissue; host or cells: brain microsomal fraction of male Sprague-Dawley rats
T1 sequence (P23711 1-315): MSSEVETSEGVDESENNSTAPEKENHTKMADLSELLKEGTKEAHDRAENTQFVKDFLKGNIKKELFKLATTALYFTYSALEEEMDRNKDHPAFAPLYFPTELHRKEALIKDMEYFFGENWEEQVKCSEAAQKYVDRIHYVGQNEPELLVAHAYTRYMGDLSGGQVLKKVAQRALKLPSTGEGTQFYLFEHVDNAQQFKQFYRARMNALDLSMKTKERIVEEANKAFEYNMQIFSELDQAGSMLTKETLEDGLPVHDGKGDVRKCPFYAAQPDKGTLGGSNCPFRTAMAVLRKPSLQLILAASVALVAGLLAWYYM
The experiment in a line: HO-2 inhibition, rat brain microsomal fraction, bilirubin formation. It is filed as biochemical. To be noted: rat brain microsomes; mean ± SD, triplicate. The procedure:
HO-1 and HO-2 were obtained from rat spleen and brain, respectively, as the microsomal fraction prepared by differential centrifugation; the dominance of HO-1 protein in the rat spleen and of HO-2 in the rat brain has been well documented. These particular microsomal preparations were selected in order to use the most native (i.e., closest to in vivo) forms of HO-1 and HO-2. Spleen and brain (Sprague–Dawley rats) microsomal fractions were prepared according to the procedure outlined by Ryter et al.. The experiments reported in the present paper complied with current Italian law and met the guidelines of the Institutional Animal Care and Use Committee of University of Catania (Italy). The experiments were performed in male Sprague–Dawley albino rats (150 g body weight and age 45 d). […] Protein concentration of the microsomal fraction was determined by Lowry method.
(§1) Liver cytosol has been used as a source of biliverdin reductase (BVR). […] The 100,000 rpm supernatant was saved and then stored in small amounts at −80 °C after its protein concentration was measured.
(§2) The HO-1 and HO-2 activities were determined by measuring the BR formation using the difference in absorbance at 464 to 530 nm as described by Ryter et al.. […] After recovering the chloroform phase, the amount of BR formed was measured with a double-beam spectrophotometer as OD464-530 nm (extinction coefficient, 40 mM/cm^−1 for BR). […]

Series [2] deals with T2, HO-1 (Rattus norvegicus, UniProt P06762).
T2 construct: selected in order to use the most native (i.e., closest to in vivo) forms of HO-1 and HO-2; from tissue; host or cells: spleen microsomal fraction of male Sprague-Dawley rats
T2 sequence (P06762 1-289): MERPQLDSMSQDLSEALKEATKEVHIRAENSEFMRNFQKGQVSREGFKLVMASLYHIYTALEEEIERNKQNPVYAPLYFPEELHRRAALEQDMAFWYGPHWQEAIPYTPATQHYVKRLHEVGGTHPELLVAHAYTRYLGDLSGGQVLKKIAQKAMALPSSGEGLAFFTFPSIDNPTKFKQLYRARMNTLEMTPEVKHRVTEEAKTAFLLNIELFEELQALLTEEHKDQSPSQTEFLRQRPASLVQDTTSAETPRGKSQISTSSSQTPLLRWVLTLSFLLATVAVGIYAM
Description: HO-1 inhibition, rat spleen microsomal fraction, bilirubin formation. The format is biochemical. Conditions: for IC50: rat spleen microsomes, mean ± SD, triplicate. The protocol: Inhibition activity assay for HO-1 was performed by extracting the enzyme from the rat spleen microsomal fraction. HO-1 activity was determined by measuring the formation of BR using the difference in absorbance at 464–530 nm, as described in the experimental section. Inhibition activity data are expressed as IC50 (μM) and obtained results are outlined in Table 2, utilizing Azalanstat as a reference compound.
HO-1 and HO-2 were obtained from rat spleen and brain, respectively, as the microsomal fraction prepared by differential centrifugation; the dominance of HO-1 protein in the rat spleen and of HO-2 in the rat brain has been well documented. These particular microsomal preparations were selected in order to use the most native (i.e., closest to in vivo) forms of HO-1 and HO-2. Spleen and brain (Sprague–Dawley rats) microsomal fractions were prepared according to the procedure outlined by Ryter et al.. The experiments reported in the present paper complied with current Italian law and met the guidelines of the Institutional Animal Care and Use Committee of University of Catania (Italy). The experiments were performed in male Sprague–Dawley albino rats (150 g body weight and age 45 d). They had free access to water and were kept at room temperature with a natural photo-period (12 h light-12 h dark cycle). For measuring HO-1 and HO-2 activities, each rat was sacrificed and their spleen and brain were excised and weighed. A homogenate (15%, w/v) of spleens and brains pooled from four rats was prepared in ice-cold HO-homogenizing buffer (50 mM Tris buffer, pH 7.4, containing 0.25 M sucrose) using a Potter–Elvehjem homogenizing system with a Teflon pestle. The microsomal fraction of rat spleen and brain homogenate was obtained by centrifugation at 10,000 rpm for 20 min at 4 °C, followed by centrifugation of the supernatant at 100,000 rpm for 60 min at 4 °C. The 100,000 rpm pellet (microsomes) was resuspended in 100 mM potassium phosphate buffer, pH 7.8, containing 2 mM MgCl2 with a Potter–Elvehjem homogenizing system. The rat spleen and brain microsomal fractions were divided into equal aliquots, placed into microcentrifuge tubes, and stored at −80 °C for up to 2 months. Protein concentration of the microsomal fraction was determined by Lowry method.
as §1, §2

Series [3] deals with HO-2. The arrangement: method as in PMID 23097500. To be noted: Figure 1; cited from earlier work.
In series [4] the test system is HO-1. The arrangement: method as in PMID 23097500. Conditions: Figure 1; cited from earlier work.
Series [5] concerns PC3 cells. The experiment in a line: In vitro cytotoxicity, sulforhodamine B assay, PC3. It is filed as cell-based. To be noted: Homo sapiens, PC-3; hormone-resistant prostate cancer cells, 72 h, SRB. The procedure:
(§3) MDA-MB-231 cells (hormone resistant), MCF-7 (hormone sensitive), PC3 cells (hormone resistant), DU145 cells (hormone resistant), LnCap cells (hormone sensitive), B16, and HEK cells were maintained in complete growth media (DMEM/Ham’s F12 supplemented with 10% fetal bovine serum, […], 100 units/mL penicillin, 100 units/mL of streptomycin, and 2.2 g/L of NaHCO3) at 37 °C in a humidified atmosphere of 5% CO2. For all procedures, cells were harvested using TrypLE Express (Life Technologies, Auckland, New Zealand).
(§4) To test the cytotoxic effect of HO inhibitors, cells (8 × 10^3 cells/well) were seeded into 96-well plates and incubated for 24 h. This was followed by treatment with HO inhibitors at the concentrations 1.1–200 μM (1.1–1000 μM for HEK cells) of compound 1. In addition, the cytotoxicity of doxorubicin (5 μM, 10 μM, and 30 μM) and a combination of doxorubicin 5 μM and 37 μM 1 was assessed using B16 cells. In all experiments, the cells were incubated for 72 h. Following the incubation, cells were fixed using 10% trichloroacetic acid (TCA). Cytotoxicity was determined using the sulforhodamine B assay as previously described. […] Treatments were performed in triplicate and data represents mean of three independent experiments.

Series [6] relates to LnCap cells. The experiment in a line: In vitro cytotoxicity, sulforhodamine B assay, LnCap. The format is cell-based. To be noted: Homo sapiens, hormone-sensitive prostate cancer cells, 72 h, SRB. The protocol:
as §3, §4

The subject of series [7] is DU145 cells. Description: In vitro cytotoxicity, sulforhodamine B assay, DU145. Conditions: Homo sapiens, DU-145; hormone-resistant prostate cancer cells, 72 h, SRB. The format is cell-based. The procedure: as §3, §4
Background: Sulforhodamine B stains cellular protein and so reports cell mass.

For series [8], the system named is HEK cells. Description: In vitro cytotoxicity, sulforhodamine B assay, HEK (healthy cells). The format is cell-based, human. The procedure: as §3, §4
Series [9] concerns B16 cells. The experiment in a line: In vitro cytotoxicity, sulforhodamine B assay, B16 (alone and with doxorubicin). It is filed as cell-based, murine. Conditions: for IC50: murine melanoma cells, 72 h, SRB. The procedure: as §3
To test the cytotoxic effect of HO inhibitors, cells (8 × 10^3 cells/well) were seeded into 96-well plates and incubated for 24 h. This was followed by treatment with HO inhibitors at the concentrations 1.1–200 μM (1.1–1000 μM for HEK cells) of compound 1. […] In all experiments, the cells were incubated for 72 h. Following the incubation, cells were fixed using 10% trichloroacetic acid (TCA). Cytotoxicity was determined using the sulforhodamine B assay as previously described. […] Treatments were performed in triplicate and data represents mean of three independent experiments.
Figure 3 Cytotoxicity of compound 1 against MCF-7 and B16 cells. (A) MCF-7 (hormone-sensitive breast cancer cells) and (B) B16 (melanoma) cells were treated with 1.1–200 μM of compound 1 for 72 h. Control wells were treated with vehicle only (0.2% DMSO). At the end of treatment, cell number was determined using the sulforhodamine B assay. Data are expressed as mean ± SEM (n = 3). Non-linear regression and IC50 values determination were performed using GraphPad Prism 6.
Figure 4 Cytotoxicity of compound 1 in combination with different concentration of doxorubicin (doxo) against B16 cells. Data are expressed as mean ± SEM (n = 3). *** Significant vs. untreated control cells: p < 0.001.

The subject of series [10] is MDA-MB-231 cells. Description: In vitro cytotoxicity, sulforhodamine B assay, MDA-MB-231. To be noted: Homo sapiens, hormone-resistant breast cancer cells, 72 h, SRB. The format is cell-based. The procedure:
as §3, §4

Series [11] deals with MCF-7 cells. The experiment in a line: In vitro cytotoxicity, sulforhodamine B assay, MCF-7. The format is cell-based. To be noted: Homo sapiens, MCF7; hormone-sensitive breast cancer cells, 72 h, SRB. The protocol:
as §3
To test the cytotoxic effect of HO inhibitors, cells (8 × 10^3 cells/well) were seeded into 96-well plates and incubated for 24 h. This was followed by treatment with HO inhibitors at the concentrations 1.1–200 μM (1.1–1000 μM for HEK cells) of compound 1. In addition, the cytotoxicity of doxorubicin (5 μM, 10 μM, and 30 μM) and a combination of doxorubicin 5 μM and 37 μM 1 was assessed using B16 cells. In all experiments, the cells were incubated for 72 h. Following the incubation, cells were fixed using 10% trichloroacetic acid (TCA). Cytotoxicity was determined using the sulforhodamine B assay as previously described. […]
Figure 3 Cytotoxicity of compound 1 against MCF-7 and B16 cells. […] At the end of treatment, cell number was determined using the sulforhodamine B assay. Data are expressed as mean ± SEM (n = 3). […]

Usually IC50 stands for the point on the concentration scale where inhibition reaches its midpoint. Broadly, the melting point is the temperature of the solid-liquid transition.

The compound `O=C(Cn1ccnc1)NC(c1ccccc1)c1ccccc1` [Compound 3, N-Benzhydryl-2-(1H-imidazol-1-yl)acetamide] showed a melting point of 196 to 197 °C. Further, inhibition in [1] was half-maximal at 14.4 ± 0.9 µM (IC50). Besides, in series [2], the IC50 was determined as 28.8 ± 1.4 µM.

As for `O=C(CCc1ccccc1)Cn1cncn1` [QC-86], the IC50 in [3] was 18 µM.

In turn, `OC(Cn1ccnc1)C12CC3CC(CC(C3)C1)C2` (stereo not drawn) [Compound 4, 2-(1H-Imidazol-1-yl)-1-tricyclo[3.3.1.13,7]dec-1-yl-ethanol] registered a melting point of 182 to 183 °C. Inhibition in [2] was half-maximal at 67.6 ± 2.1 µM (IC50).

Take `O=C(CC(c1ccccc1)c1ccccc1)Cn1ccnc1` [QC-308]: in [3], the IC50 is […].

Turning to `Clc1ccc(CCC2(Cn3ccnc3)OCCO2)cc1` [QC-15], the IC50 in series [4] is 2.8 µM; in [3] it was above 100 µM.

Consider `Nc1ccc(SC[C@@H]2CO[C@](CCc3ccc(Cl)cc3)(Cn3ccnc3)O2)cc1` [Azalanstat], for which the IC50 in [4] was 5.3 µM; in [3], 24.4 µM.

For `O=C(Cn1ccnc1)C12CC3CC(CC(C3)C1)C2` [QC-82], the values for the IC50 in series [4] and in series [3] were 3 µM and above 100 µM, respectively.

As to `FC(F)(F)c1ccc(SC[C@@H]2CO[C@@](CCc3ccc(Cl)cc3)(Cn3ccnc3)O2)nc1` [QC-80], the IC50 in series [4] is 2.1 µM; in series [3] it was 16 µM.

Regarding `OC(Cn1ccnc1)c1cccc(Br)c1` (stereo not drawn) [Compound 1], the IC50 stood at 165 ± 2.8 µM in series [5]; 158 ± 2.3 µM in series [6]; 138 ± 2.7 µM in series [7]; 364 ± 21.3 µM in series [8] (HEK293, non-cancerous human embryonic kidney cells, 72 h, SRB); 42 µM in series [9] (Mus musculus, B16, 72 h); 37 ± 7.25 µM in [9]. In addition, the IC50 in series [10] came out at 82.6 ± 0.57 µM; in series [11], 52.6 ± 3.76 µM. The “Selectivity for cancer cells with respect to healthy cells” value in series [8] (cancer cell lines vs HEK) is given as 2–10 fold. Also, the “Cytotoxic effect in combination with doxorubicin” value in [9] (compound 1 (10 μM) with doxorubicin (5 μM), B16 cells) was “synergistic cytotoxic effect”.

The compound `Brc1cccc(C(Cn2ccnc2)OCc2ccccc2)c1` (stereo not drawn) [Compound 2, 1-[2-(3-Bromophenyl)-2-(phenylmethoxy)ethyl]-1H-imidazole] registered an IC50 in series [2] of 80 ± 3.3 µM. The “fold less potent towards HO-1 than parent compound 1” value in series [2] (ratio of HO-1 IC50 values) is recorded as “around 200 fold”.
